Reference: patent EP2924037A1, “QUINAZOLINE DERIVATE AND USE THEREOF AS APOPTOSIS INHIBITOR” (Linx Pharmaceutical Co., Ltd., priority 2012, dated 2013)
Like-named read-outs stand apart in the source and are kept apart here.

Assays:
pgk1 = molecular target: T1, pgk1 (Mus musculus, UniProt P09411); test: Activity assay of pgk1 (GAPDH-coupled, absorbance at 340 nm); format: biochemical
T1 construct: His; made in house; host or cells: E. coli
T1 sequence (P09411 1-417): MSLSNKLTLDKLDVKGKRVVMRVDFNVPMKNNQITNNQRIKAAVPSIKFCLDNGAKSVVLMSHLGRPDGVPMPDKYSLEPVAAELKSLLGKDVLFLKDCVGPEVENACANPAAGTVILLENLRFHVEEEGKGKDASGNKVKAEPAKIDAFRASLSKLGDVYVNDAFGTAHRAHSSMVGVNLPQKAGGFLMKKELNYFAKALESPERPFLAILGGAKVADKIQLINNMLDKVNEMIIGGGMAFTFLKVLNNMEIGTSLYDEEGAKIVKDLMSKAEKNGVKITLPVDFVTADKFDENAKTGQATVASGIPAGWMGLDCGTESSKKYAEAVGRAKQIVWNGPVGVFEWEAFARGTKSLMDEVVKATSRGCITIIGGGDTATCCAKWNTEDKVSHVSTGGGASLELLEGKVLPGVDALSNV
Procedure: The recombinant mouse pgk1 protein (His-pgk1) was expressed in the E. Coli. The protein was purified by a Nickel column. The proteins were diluted to 0.15 unit /mL. Then, different concentrations of terazosin were added to determine the pgk1 activity.
According to the components of Colorimetric GAPDH Assay Kit (ScienCells), the reaction solution was prepared with solutions of GAPDH, HEPES, and MgSO4. A predetermined concentration of the compound of Formula I was added to the reaction solution (30 mM Hepes, 3 mM ATP, 0.22 mM NADH, 10 mM MgSO4, 10 mM 3-PGA, 3-4 U/ml GAPDH, pH 7.5). Absorbance was measured at 25 °C with a spectroscope (340 nm). Relative activity of pgk1 was calculated based on the changes of absorbance value within 1-10 minutes. The activity has a positive correlation with the changes of absorbance value. The absorbance of the same compound at 340 nm was subtracted in the test group.

[1] = Effect on serum glucose in mice; format: in vivo; conditions: Mus musculus, ip; 0.4 mg/kg i.p. once, measured 18 hours later; t-test P<0.01 for terazosin; read-out: reduction of the serum glucose level
Procedure: Mice were injected terazosin (0.4 mg/kg i.p.) once. The serum glucose level of the mice was measured 18 hours later. […] By the same method, exemplary compounds Co.1, Co.3, Co.7, Co.9, Co.13, Co.16, Co.19, Co.24, Co.27 and Co.32 as described in the present invention were all shown to be effective to reduce the serum glucose level by 20% to 50%.

cerebral thrombosis = test: Mouse model of cerebral thrombosis, infarct volume; format: in vivo; conditions: 0.4 mg/kg i.p.; 6 mice per condition; t-test P<0.05
Procedure: In a mouse model of cerebral thrombosis, the mouse brains were stained after death from thrombosis. […] The statistical analysis was performed based on % infarct volume = white area/total area, 6 mice were tested for each condition. t-test, P<0.05.

[2] = read-out: Activity* (the times of pgk1 activity induced by 0.02µg/ml of the tested compound)

| Structure (SMILES) | fold induction at 0.02 µg/mL (pgk1; 0.02 µg/ml, read-out: activation of pgk1 represented by fold changes) | fold induction at 0.02 µg/mL (pgk1; [2]) | inhibition in vivo at 0.4 mg/kg [1] | infarct volume (% infarct volume = white area/total area) (cerebral thrombosis) |
| --- | --- | --- | --- | --- |
| COc1cc2nc(N3CCN(C(=O)C4CCCO4)CC3)nc(NCCOCCO)c2cc1OC (centres unmarked) [Co.2] | 2.3 | 2.3 |  |  |
| CCOCCOc1c(OC)c(OC)c(OCCOCC)c2c(N)nc(N3CCN(C(=O)C4CCCO4)CC3)nc12 (centres unmarked) [Co.25] |  | 2.7 |  |  |
| COc1cc2nc(N3CCN(C(=O)C4CCCO4)CC3)nc(N3CCCCC3)c2cc1OC (centres unmarked) [Co.10] |  | 0.7 |  |  |
| Nc1nc(N2CCN(C(=O)C3CCCO3)CC2)nc2cc3c(cc12)OCO3 (centres unmarked) [Co.15] |  | 0.6 |  |  |
| CCCCc1c(OC)c(OC)c(OC)c2c(N)nc(N3CCN(C(=O)C4CCCO4)CC3)nc12 (centres unmarked) [Co.30] |  | 1.8 |  |  |
| COc1c(OC)c(OC)c2c(N)nc(N3CCN(C(=O)C4CCCO4)CC3)nc2c1NC(=O)c1ccccc1 (centres unmarked) [Co.31] |  | 0.6 |  |  |
| C=CCNc1nc(N2CCN(C(=O)C3CCCO3)CC2)nc2cc(OC)c(OC)cc12 (centres unmarked) [Co.5] |  | 1.5 |  |  |
| COc1cc2c(N)nc(N3CCN(C(=O)C4CCCO4)CC3)nc2cc1OC1CC=CCC1 (centres unmarked) [Co.24] |  | 0.4 | 20 to 50% |  |
| COc1cc2nc(N3CCN(C(=O)C4CCCO4)CC3)nc(Nc3ccccc3)c2cc1OC (centres unmarked) [Co.12] |  | 2.6 |  |  |
| COc1c(OC)c(OC)c2c(N)nc(N3CCN(C(=O)C4CCCO4)CC3)nc2c1OC(C)=O (centres unmarked) [Co.26] |  | 3.2 |  |  |
| CCOCCOc1cc2nc(N3CCN(C(=O)C4CCCO4)CC3)nc(N)c2cc1OCCOCC (centres unmarked) [Co.16] |  | 1.7 | 20 to 50% | effective to reduce the infarct volume |
| CCCCCCNc1nc(N2CCN(C(=O)C3CCCO3)CC2)nc2cc(OC)c(OC)cc12 (centres unmarked) [Co.7] |  | 2.1 | 20 to 50% | effective to reduce the infarct volume |
| Nc1nc(N2CCN(C(=O)C3CCCO3)CC2)nc2cc(N3CCCCC3)c(C(F)(F)F)cc12 (centres unmarked) [Co.19] |  | 1.4 | 20 to 50% | effective to reduce the infarct volume |
| CCCc1cc2nc(N3CCN(C(=O)C4CCCO4)CC3)nc(N)c2cc1OC (centres unmarked) [Co.22] |  | 2.4 |  |  |
| C#CCNc1nc(N2CCN(C(=O)C3CCCO3)CC2)nc2cc(OC)c(OC)cc12 (centres unmarked) [Co.6] |  | 1.2 |  |  |
| Nc1nc(N2CCN(C(=O)C3CCCO3)CC2)nc2cc3cccnc3cc12 (centres unmarked) [Co.20] |  | 1.9 |  |  |
| COc1cc2nc(N3CCN(C(=O)C4CCCO4)CC3)nc(NN)c2cc1OC (centres unmarked) [Co.3] |  | 1.9 | 20 to 50% |  |
| COc1cc2nc(N3CCN(C(=O)C4CCCO4)CC3)nc(NC(=O)c3ccccc3)c2cc1OC (centres unmarked) [Co.14] |  | 1.5 |  | effective to reduce the infarct volume |
| COc1c(OC)c(C(F)(F)F)c2c(N)nc(N3CCN(C(=O)C4CCCO4)CC3)nc2c1N1CCCCC1 (centres unmarked) [Co.27] |  | 0.9 | 20 to 50% |  |
| COc1cc2nc(N3CCN(C(=O)C4CCCO4)CC3)nc(NCCCCC(F)(F)F)c2cc1OC (centres unmarked) [Co.8] |  | 0.9 |  | effective to reduce the infarct volume |
| COc1cc2c(N)nc(N3CCN(C(=O)C4CCCO4)CC3)nc2cc1NC(=O)c1ccccc1 (centres unmarked) [Co.23] |  | 0.7 |  |  |
| COc1cc2nc(N3CCN(C(=O)C4CCCO4)CC3)nc(N(C)CCOCCO)c2cc1OC (centres unmarked) [Co.11] |  | 2.1 |  |  |
| COc1c(OC)c(OC)c2c(N)nc(N3CCN(C(=O)C4CCCO4)CC3)nc2c1OC1CC=CCC1 (centres unmarked) [Co.32] |  | 2.8 | 20 to 50% | effective to reduce the infarct volume |
| COc1cc2c(N)nc(N3CCN(C(=O)C4CCCO4)CC3)nc2cc1OC(C)=O (centres unmarked) [Co.17] |  | 1.1 |  |  |
